Reference: BindingDB's records for patent US20240270732 (Chengdu Biobel Biotechnology Co., 2024)

Target: T1, Receptor-interacting serine/threonine-protein kinase 1 (Homo sapiens, UniProt Q13546)
T1 sequence (Q13546 whole entry): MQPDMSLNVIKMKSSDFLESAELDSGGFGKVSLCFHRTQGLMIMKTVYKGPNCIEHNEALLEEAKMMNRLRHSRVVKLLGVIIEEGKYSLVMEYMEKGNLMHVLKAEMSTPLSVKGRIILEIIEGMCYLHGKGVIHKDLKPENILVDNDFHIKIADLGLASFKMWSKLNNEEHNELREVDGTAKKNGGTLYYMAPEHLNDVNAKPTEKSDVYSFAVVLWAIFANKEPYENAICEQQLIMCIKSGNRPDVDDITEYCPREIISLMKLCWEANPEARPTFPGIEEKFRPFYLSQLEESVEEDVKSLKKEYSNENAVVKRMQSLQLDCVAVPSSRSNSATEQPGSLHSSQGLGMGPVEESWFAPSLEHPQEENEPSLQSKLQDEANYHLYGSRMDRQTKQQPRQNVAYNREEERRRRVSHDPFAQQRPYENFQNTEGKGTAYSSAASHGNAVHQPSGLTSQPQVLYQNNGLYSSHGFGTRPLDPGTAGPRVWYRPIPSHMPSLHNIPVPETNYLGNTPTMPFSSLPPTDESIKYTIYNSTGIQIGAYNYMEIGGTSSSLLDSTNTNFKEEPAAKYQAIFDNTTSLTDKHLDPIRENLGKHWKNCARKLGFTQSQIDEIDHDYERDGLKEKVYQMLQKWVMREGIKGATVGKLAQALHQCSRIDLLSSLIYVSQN
Experiment: Inhibitory Activity Assay
Protocol: The compound of the present invention and the control compound were dissolved in the assay buffer (50 mM Hepes pH 7.5, 50 mM NaCl, 30 mM MgCl2, 1 mM DTT, 0.02% CHAPS, 0.5 mg/mL BSA), and diluted in a ratio of 1:1.5 using a 22-point titration (high concentration 2 μM), and then added to a 384-well plate. […] After completion of the reaction, 5 μL of ADP-Glo reagent containing 0.02% CHAPS was added to each well and incubated at room temperature for 1 h to terminate the kinase reaction and use up all remaining ATP. Then, 5 μL of ADP-Glo detection solution containing 0.02% CHAPS was added to each well and incubated at room temperature for 30 min to measure the emittance intensity.

C[C@H]1Oc2ccc(C#CCN3CCN(CC#Cc4ccc5c(c4)N(C)C(=O)[C@@H](NC(=O)c4n[nH]c(Cc6ccccc6)n4)CO5)CC3)cc2N(C)C(=O)[C@H]1NC(=O)c1n[nH]c(Cc2ccccc2)n1 [US20240270732, Compound I-3]
IC50: 7.22 nM

C[C@H]1Oc2ccc(C#CCN3CCN(CC#Cc4ccc5c(c4)N(C)C(=O)[C@@H](NC(=O)c4ncn(Cc6ccccc6)n4)[C@@H](C)O5)CC3)cc2N(C)C(=O)[C@H]1NC(=O)c1n[nH]c(Cc2ccccc2)n1 [US20240270732, Compound I-4]
IC50: 6.68 nM

C[C@H]1Oc2ccc(C#CCN3CCN(CC#Cc4ccc5c(c4)N(C)C(=O)[C@@H](NC(=O)c4ncn(Cc6ccccc6)n4)CO5)CC3)cc2N(C)C(=O)[C@H]1NC(=O)c1n[nH]c(Cc2ccccc2)n1 [US20240270732, Compound I-5]
IC50: 3.35 nM

C[C@H]1Oc2ccc(C#CCN3CCN(CC#Cc4ccc5c(c4)N(C)C(=O)[C@@H](NC(=O)c4nnn(Cc6ccccc6)n4)[C@@H](C)O5)CC3)cc2N(C)C(=O)[C@H]1NC(=O)c1n[nH]c(Cc2ccccc2)n1 [US20240270732, Compound I-6]
IC50: 11.2 nM

C[C@H]1Oc2ccc(C#CCN3CCN(CC#Cc4ccc5c(c4)N(C)C(=O)[C@@H](NC(=O)c4nnn(Cc6ccccc6)n4)CO5)CC3)cc2N(C)C(=O)[C@H]1NC(=O)c1n[nH]c(Cc2ccccc2)n1 [US20240270732, Compound I-7]
IC50: 7.81 nM

C[C@H]1Oc2ccc(C#CCN3CCN(CC#Cc4ccc5c(c4)N(C)C(=O)[C@@H](NC(=O)c4n[nH]c(Cc6ccccc6)n4)[C@@H](C)O5)CC3)cc2N(C)C(=O)[C@H]1NC(=O)c1cn(Cc2ccccc2)cn1 [US20240270732, Compound I-8]
IC50: 9.5 nM

C[C@H]1Oc2ccc(C#CCN3CCN(CC#Cc4ccc5c(c4)N(C)C(=O)[C@@H](NC(=O)c4cn(Cc6ccccc6)cn4)CO5)CC3)cc2N(C)C(=O)[C@H]1NC(=O)c1n[nH]c(Cc2ccccc2)n1 [US20240270732, Compound I-9]
IC50: 8.72 nM

C#CCN1CCN(CC#Cc2ccc3c(c2)N(C)C(=O)[C@@H](NC(=O)c2n[nH]c(Cc4ccccc4)n2)CO3)CC1 [US20240270732, Compound I-10]
IC50: 3.21 nM

CN1C(=O)[C@@H](NC(=O)c2n[nH]c(Cc3ccccc3)n2)COc2ccc(C#CCN3CCN(CC#Cc4ccc5c(c4)N(C)C(=O)[C@@H](NC(=O)c4n[nH]c(Cc6ccccc6)n4)CO5)CC3)cc21 [US20240270732, Compound I-11]
IC50: 1.96 nM

C[C@H]1Oc2ccc(C#CCN3CCN(CC#Cc4ccc5c(c4)N(C)C(=O)[C@@H](NC(=O)c4n[nH]c(Cc6ccccc6)n4)CO5)CC3)cc2N(C)C(=O)[C@H]1NC(=O)c1ncn(Cc2ccccc2)n1 [US20240270732, Compound I-12]
IC50: 2.75 nM

CN1C(=O)[C@@H](NC(=O)c2n[nH]c(Cc3ccccc3)n2)COc2ccc(C#CCN3CCN(CC#Cc4ccc5c(c4)N(C)C(=O)[C@@H](NC(=O)c4ncn(Cc6ccccc6)n4)CO5)CC3)cc21 [US20240270732, Compound I-13]
IC50: 3.22 nM

C#CCN1CCN(CC#Cc2ccc3c(c2)N(C)C(=O)[C@@H](NC(=O)c2n[nH]c(Cc4ccccc4)n2)[C@@H](C)O3)CC1 [US20240270732, Compound I-14]
IC50: 4.79 nM

C#CCN1CCN(CC#Cc2ccc3c(c2)NC(=O)[C@@H](NC(=O)c2n[nH]c(Cc4ccccc4)n2)[C@@H](C)O3)CC1 [US20240270732, Compound I-16]
IC50: 5.59 nM

C[C@H]1Oc2ccc(C#CCN3CCN(CC#Cc4ccc5c(c4)NC(=O)[C@@H](NC(=O)c4n[nH]c(Cc6ccccc6)n4)[C@@H](C)O5)CC3)cc2NC(=O)[C@H]1NC(=O)c1n[nH]c(Cc2ccccc2)n1 [US20240270732, Compound I-17]
IC50: 3.56 nM

C#CCN1CCN(CC#Cc2ccc3c(c2)N(C)C(=O)[C@@H](NC(=O)c2n[nH]c(Cc4ccccc4)n2)[C@H](C)O3)CC1 [US20240270732, Compound I-18]
IC50: 57.7 nM

C[C@@H]1Oc2ccc(C#CCN3CCN(CC#Cc4ccc5c(c4)N(C)C(=O)[C@@H](NC(=O)c4n[nH]c(Cc6ccccc6)n4)[C@H](C)O5)CC3)cc2N(C)C(=O)[C@H]1NC(=O)c1n[nH]c(Cc2ccccc2)n1 [US20240270732, Compound I-19]
IC50: 62.3 nM

C#CCN1CCN(CC#Cc2ccc3c(c2)NC(=O)[C@@H](NC(=O)c2n[nH]c(Cc4ccccc4)n2)CO3)CC1 [US20240270732, Compound I-20]
IC50: 9.44 nM

O=C(N[C@H]1COc2ccc(C#CCN3CCN(CC#Cc4ccc5c(c4)NC(=O)[C@@H](NC(=O)c4n[nH]c(Cc6ccccc6)n4)CO5)CC3)cc2NC1=O)c1n[nH]c(Cc2ccccc2)n1 [US20240270732, Compound I-21]
IC50: 9.69 nM

C[C@H]1Oc2ccc(C#CCN3CCN(CC#Cc4ccc5c(c4)N(C)C(=O)[C@@H](NC(=O)c4ncn(Cc6ccccc6)n4)[C@@H](C)O5)CC3)cc2N(C)C(=O)[C@H]1NC(=O)c1ncn(Cc2ccccc2)n1 [US20240270732, Compound I-23]
IC50: 4.66 nM

C[C@H]1Oc2ccc(C#CCN3CCN(CC#Cc4ccc5c(c4)N(C)C(=O)[C@@H](NC(=O)c4nnn(Cc6ccccc6)n4)[C@@H](C)O5)CC3)cc2N(C)C(=O)[C@H]1NC(=O)c1ncn(Cc2ccccc2)n1 [US20240270732, Compound I-25]
IC50: 3.39 nM

C[C@H]1Oc2ccc(C#CCN3CCN(CC#Cc4ccc5c(c4)N(C)C(=O)[C@@H](NC(=O)c4nnn(Cc6ccccc6)n4)CO5)CC3)cc2N(C)C(=O)[C@H]1NC(=O)c1ncn(Cc2ccccc2)n1 [US20240270732, Compound I-26]
IC50: 3.73 nM

C[C@H]1Oc2ccc(C#CCN3CCN(CC#Cc4ccc5c(c4)N(C)C(=O)[C@@H](NC(=O)c4ncn(Cc6ccccc6)n4)[C@@H](C)O5)CC3)cc2N(C)C(=O)[C@H]1NC(=O)c1cn(Cc2ccccc2)cn1 [US20240270732, Compound I-27]
IC50: 4 nM

C[C@H]1Oc2ccc(C#CCN3CCN(CC#Cc4ccc5c(c4)N(C)C(=O)[C@@H](NC(=O)c4cn(Cc6ccccc6)cn4)CO5)CC3)cc2N(C)C(=O)[C@H]1NC(=O)c1ncn(Cc2ccccc2)n1 [US20240270732, Compound I-28]
IC50: 4.59 nM

C#CCN1CCN(CC#Cc2ccc3c(c2)N(C)C(=O)[C@@H](NC(=O)c2ncn(Cc4ccccc4)n2)CO3)CC1 [US20240270732, Compound I-29]
IC50: 2.88 nM

C[C@H]1Oc2ccc(C#CCN3CCN(CC#Cc4ccc5c(c4)N(C)C(=O)[C@@H](NC(=O)c4ncn(Cc6ccccc6)n4)CO5)CC3)cc2N(C)C(=O)[C@H]1NC(=O)c1ncn(Cc2ccccc2)n1 [US20240270732, Compound I-31]
IC50: 2.95 nM

CN1C(=O)[C@@H](NC(=O)c2ncn(Cc3ccccc3)n2)COc2ccc(C#CCN3CCN(CC#Cc4ccc5c(c4)N(C)C(=O)[C@@H](NC(=O)c4ncn(Cc6ccccc6)n4)CO5)CC3)cc21 [US20240270732, Compound I-32]
IC50: 3.08 nM

C[C@H]1Oc2ccc(C#CCN3CCN(CC#Cc4ccc5c(c4)N(C)C(=O)[C@@H](NC(=O)c4ncn(Cc6ccccc6)n4)CO5)CC3)cc2N(C)C(=O)[C@H]1NC(=O)c1cn(Cc2ccccc2)cn1 [US20240270732, Compound I-33]
IC50: 3.54 nM

CN1C(=O)[C@@H](NC(=O)c2cn(Cc3ccccc3)cn2)COc2ccc(C#CCN3CCN(CC#Cc4ccc5c(c4)N(C)C(=O)[C@@H](NC(=O)c4ncn(Cc6ccccc6)n4)CO5)CC3)cc21 [US20240270732, Compound I-34]
IC50: 4.68 nM

C#CCN1CCN(CC#Cc2ccc3c(c2)N(C)C(=O)[C@@H](NC(=O)c2ncn(Cc4ccccc4)n2)[C@@H](C)O3)CC1 [US20240270732, Compound I-37]
IC50: 4.17 nM

O=C(N[C@H]1COc2ccc(C#CCN3CCN(CC#Cc4ccc5c(c4)NC(=O)[C@@H](NC(=O)c4ncn(Cc6ccccc6)n4)CO5)CC3)cc2NC1=O)c1ncn(Cc2ccccc2)n1 [US20240270732, Compound I-42]
IC50: 5.03 nM

C#CCN1CCN(CC#Cc2ccc3c(c2)N(C)C(=O)[C@@H](NC(=O)c2ncc(Cc4ccccc4)o2)[C@@H](C)O3)CC1 [US20240270732, Compound I-43]
IC50: 12.7 nM

C[C@H]1Oc2ccc(C#CCN3CCN(CC#Cc4ccc5c(c4)N(C)C(=O)[C@@H](NC(=O)c4ncc(Cc6ccccc6)o4)[C@@H](C)O5)CC3)cc2N(C)C(=O)[C@H]1NC(=O)c1ncc(Cc2ccccc2)o1 [US20240270732, Compound I-44]
IC50: 14.9 nM

C#CCN1CCN(CC#Cc2ccc3c(c2)N(C)C(=O)[C@@H](NC(=O)c2cc(Cc4ccccc4)on2)[C@@H](C)O3)CC1 [US20240270732, Compound I-45]
IC50: 14.2 nM

C[C@H]1Oc2ccc(C#CCN3CCN(CC#Cc4ccc5c(c4)N(C)C(=O)[C@@H](NC(=O)c4cc(Cc6ccccc6)on4)[C@@H](C)O5)CC3)cc2N(C)C(=O)[C@H]1NC(=O)c1cc(Cc2ccccc2)on1 [US20240270732, Compound I-46]
IC50: 10.8 nM

C#CCN1CCN(CC#Cc2ccc3c(c2)N(C)C(=O)[C@@H](NC(=O)c2cnn(Cc4ccccc4)c2)[C@@H](C)O3)CC1 [US20240270732, Compound I-47]
IC50: 13.6 nM
